Assay results: patent US6630481B2, “Viologen linked acridine based molecule and process for the preparation thereof” (Council of Scientific and Industrial Research of India, priority 2001, dated 2003)

How the values were obtained:
calf thymus DNA = experiment: DNA binding affinity (association constants) by absorption and fluorescence; settings: buffer containing 1 mM EDTA
Experimental: DNA binding efficiency. DNA binding affinities of acridine-viologen bifunctional molecules represented by compound of formula 1a and 1d were analyzed using calf thymus DNA, in NaCl buffer at different salt concentrations (2 mM and 100 mM). Test solutions containing different concentrations of calf thymus DNA in NaCl buffer were incubated at room temperature for one hour to complete the complexation and were analyzed using absorption and fluorescence techniques. […] The binding constants of viologen linked acridines with DNA were determined according to the reported procedures. References may be made to Peacocke, A. R.; Skerrett, J. N. H. Trans. Faraday Soc. 1956, 52, 261; McGhee, J. D.; von Hippel, P. H. J. Mol. Biol. 1974, 86, 469; Scatchard, G. Ann. N.Y. Acad. Sci 1949, 51, 660; Adam, W.; Cadet, J.; Dall'Acqua, F.; Epe, B.; Ramaiah, D.; Saha-Moller, C. R. Angew. Chem. Int. Ed. Engl. 1995, 34, 107). […] Further fluorescence lifetimes of these compounds were also examined in presence and absence of DNA.

PM2 DNA = experiment: DNA relaxation assay: photoactivated cleavage of plasmid DNA with repair endonucleases; type: biochemical; settings: 360 nm light; for damage sensitive to FPG protein with increase in the time of irradiation: 0° C., FIG. 5 and FIG. 6; for generation of single strand breaks (SSB) with irradiation time: irradiation for 30 min
Description: Cleavage of plasmid DNA was followed by monitoring the conversion of supercoiled (Form I) to open circular relaxed (Form II) and linear (Form III). Plasmid DNA cleavage is a very sensitive technique and when combined with several repair endonucleases, it can serve as a kind of fingerprint of the species directly responsible for the damage. Induction of one single strand break (SSB) by a compound converts Form I to Form II and the quantification of which indicates its efficiency of DNA cleavage. A DNA relaxation assay was used to quantify SSB and endonuclease-sensitive modifications (Epe, B.; Helger, J.; Wild, D. Carcinogenesis 1989, 10, 2019 and Epe, B.; Mftzel, P.; Adam, W. Chem. Biol. Interactions 1988, 67, 149). This assay makes use of the fact that Form I when converted by either a single strand break (SSB) or the incision by a repair endonuclease leads to Form II, which migrates separately in agarose gel electrophoresis.
Phosphate-buffered (pH 7.0), air-saturated solutions of PM2 DNA (10 μg/mL) at 0° C. were irradiated with 360 nm near-UV irradiation in the presence of various concentrations of acridine-viologen bifunctional molecules represented by compound of formula 1a and 1b (wherein Y=—(CH2)n, wherein n=1-11; R=—MV^2+—(CH2)m—CH32X^⊖ or —Pyr^2+—(CH2)m—CH32X^⊖ and wherein Y=—(CH2)n, wherein n=1-11; R=—MV^2+—(CH2)m—Acr2X^⊖ or —Pyr^2+—(CH2)m—Acr2X^⊖ respectively). Subsequently, the DNA was analyzed for the following types of modifications: (i) DNA single and double strand breaks; (ii) sites of base loss (AP sites) recognized by exonuclease III; (iii) base modifications plus AP sites sensitive to the T4 endonuclease V; (iv) base modifications plus AP sites sensitive to the endonuclease III and (v) base modifications plus AP sites sensitive to formamidopyrimidine-DNA glycosylase (FPG protein).

## CCCC[n+]1ccc(-c2cc[n+](Cc3c4ccccc4nc4ccccc34)cc2)cc1.[Br-].[Br-] [1-[(acridin-9-yl)methyl]-1′-butyl-4,4′-bipyridinium dibromide]
Calf thymus DNA; 2 mM NaCl
  K (DNA association constant): 924000 M⁻¹
Calf thymus DNA; 100 mM NaCl
  K (DNA association constant): 101000 M⁻¹
PM2 DNA
  damage sensitive to FPG protein with increase in the time of irradiation: increases
  generation of single strand breaks (SSB) with irradiation time: No significant increase

## bis-1,1′-[(acridin-9-yl)methyl]-4,4′-bipyridinium dibromide
Calf thymus DNA; 2 mM NaCl
  K (DNA association constant): 1.3e+06 M⁻¹
Calf thymus DNA; 100 mM NaCl
  K (DNA association constant): 390000 M⁻¹

## CCCC[n+]1ccc(-c2cc[n+](CCCCCCCCCCCc3c4ccccc4nc4ccccc34)cc2)cc1.[Br-].[Br-] [1-[11-(acridin-9-yl)undecyl]-1′-butyl-4,4′-bipyridinium dibromide]
Calf thymus DNA; 2 mM NaCl
  K (DNA association constant): 5.24e+06 M⁻¹
Calf thymus DNA; 100 mM NaCl
  K (DNA association constant): 164000 M⁻¹
PM2 DNA
  damage sensitive to FPG protein with increase in the time of irradiation: increases
  generation of single strand breaks (SSB) with irradiation time: No significant increase
